Measured values published in patent US20140302568A1, “POLYOL OXIDASE” (NATIONAL UNIVERSITY CORPORATION KAGAWA UNIVERSITY, priority 2011, published 2014).

Columns and labels:
[1] = tested on: polyol oxidase of the B strain; experiment: Screening for oxidase activity, crude extract of B strain (peroxidase method, visual colour development); format: biochemical, B strain (filamentous fungus); details: substrate 0.5 M, room temperature
Procedure: (§1) Isolated microbial cells were inoculated into 5 mL of PDB, followed by shaking incubation at 28° C. for 1 week. In a 200-mL Erlenmeyer flask, 6 g of wheat bran and 15 mL of water were added and mixed with each other, and the resulting mixture was sterilized in an autoclave and used as a wheat bran culture medium. To the thus prepared wheat bran culture medium, the liquid-cultured microbial cells were added together with the total amount of the culture solution, and the resulting mixture was incubated at 28° C. After two-week incubation, an extract solution was prepared by a method described below and used for the measurement of the oxidase activity.
(§2) To the wheat bran culture medium in which the microbial cells were grown, 20 mL of a 10 mM potassium phosphate buffer (pH 7.0) was added, and the cells were well immersed therein and left to stand on ice for 1 hour, and then, the mixture was squeezed with a gauze pad. Thereafter, centrifugation was performed at 4° C. and 12,000 rpm for 18 minutes to remove fine particles, and the resulting solution was used as a crude extract solution.
(§3) In primary screening, a sugar mixed solution and an amino acid mixed solution were used in consideration of efficiency. The crude extract solution in which the activity was detected by the primary screening was subjected to secondary screening using the respective substrates individually at 0.5 M, and the substrate was specified.
(§4) As the measurement method for the oxidase activity, a peroxidase method was used. […]
(§5) In this method, the activity is measured by colorimetric determination of hydrogen peroxide generated by an oxidation reaction. […] The oxidized ABTS develops a blue color, and therefore, by visual observation or measurement of absorbance at 420 nm, the oxidase activity can be detected. […] After a reaction was allowed to proceed at room temperature, whether or not the color was developed was confirmed by visual observation, and the crude extract solution added to the reaction solution in which the color was developed was determined to have an oxidase activity.

[2] = tested on: polyol oxidase derived from Penicillium sp. KU-1; experiment: Substrate specificity of the partially purified polyol oxidase (peroxidase method); format: biochemical; details: for Relative activity (%): substrate specificity, partially purified enzyme, relative to D-arabitol = 100
Procedure: As the measurement method for the oxidase activity, a peroxidase method was used. When a D-glucose oxidase is taken as an example, the principle of the peroxidase method is as follows.
In this method, the activity is measured by colorimetric determination of hydrogen peroxide generated by an oxidation reaction. When hydrogen peroxide generated by an oxidation reaction with a substrate is reacted with a peroxidase, an oxidation reaction of ABTS is catalyzed to generate oxidized ABTS. The oxidized ABTS develops a blue color, and therefore, by visual observation or measurement of absorbance at 420 nm, the oxidase activity can be detected. In the measurement of the activity, the crude extract solution obtained by extraction from the wheat bran culture medium was used. Further, as the control, a reaction solution in which water was added in place of the substrate was also prepared in the same manner. After a reaction was allowed to proceed at room temperature, whether or not the color was developed was confirmed by visual observation, and the crude extract solution added to the reaction solution in which the color was developed was determined to have an oxidase activity.
The measurement of the activity of the present enzyme was performed by measuring an increase in absorbance at 420 nm using the same peroxidase method as described above. The enzymatic reaction was initiated by adding D-mannitol, and the absorbance was measured over time for 10 minutes under the reaction conditions of 30° C. using a spectrophotometer U-2010 manufactured by Hitachi Co., Ltd. The reaction was performed by preparing the reaction solution so that the total amount thereof was 1 mL as shown in Table 11. “1 unit” was defined as the amount of the enzyme required to increase the absorbance at 420 nm by 1 for 1 minute.
Among the polyols used in the assay, the activity of the enzyme was high for D-arabitol, erythritol, D-mannitol, and D-sorbitol, which are listed in descending order of activity, and a high activity was not observed for the other polyols.

[3] = tested on: polyol oxidase of the A strain; experiment: Screening for oxidase activity, crude extract of A strain (peroxidase method, visual colour development); format: biochemical, Penicillium sp. KU-1 (A strain); details: substrate 0.5 M, room temperature
Procedure: as §1, §2, §3, §4, §5

[4] = tested on: D-glucose oxidase of the C strain; experiment: Screening for oxidase activity, crude extract of C strain (peroxidase method, visual colour development); format: biochemical, Aspergillus niger (C strain); details: substrate 0.5 M, room temperature
Procedure: as §1, with “activity. […]” for “activity.”
as §3, with “specified. […]” for “specified.”
In this method, the activity is measured by colorimetric determination of hydrogen peroxide generated by an oxidation reaction. […] The oxidized ABTS develops a blue color, and therefore, by visual observation or measurement of absorbance at 420 nm, the oxidase activity can be detected. […]

SMILES | activity of the enzyme for the polyol (in words) [2] | Relative activity (%) [2] [%] | reactivity as a substrate of the D-glucose oxidase of the C strain [4] | reactivity as a substrate of the enzyme of the B strain [1] | reactivity as a substrate of the oxidase of the A strain [3]
OC[C@@H](O)[C@@H](O)[C@@H](O)[C@@H](O)CO [Allitol] | low | 0.45 | – | uses all of D-sorbitol, D-mannitol, and allitol as a substrate | does not show reactivity
OC[C@@H](O)[C@@H](O)CO [Erythritol] | high | 80.5 | – | – | –
OC[C@@H](O)[C@@H](O)[C@@H](O)CO [Ribitol] | low | – | – | – | –
OCC(O)CO [Glycerol] | – | 0.18 | – | – | –
OC[C@@H](O)[C@@H](O)[C@H](O)[C@H](O)CO [D-mannitol] | high | 79.0 | – | uses all of D-sorbitol, D-mannitol, and allitol as a substrate | uses D-sorbitol and D-mannitol as a substrate
OC[C@@H](O)[C@@H](O)[C@H](O)[C@@H](O)CO [D-sorbitol] | high | 36.7 | – | uses all of D-sorbitol, D-mannitol, and allitol as a substrate | uses D-sorbitol and D-mannitol as a substrate
O=C[C@H](O)[C@@H](O)[C@H](O)[C@H](O)CO [D-glucose] | – | – | high substrate specificity for D-glucose | – | –

More lines, main results first:

activity of the enzyme for the polyol (in words) [2] | Relative activity (%) [2] [%] | reactivity as a substrate of the D-glucose oxidase of the C strain [4] | SMILES | reactivity as a substrate of the enzyme of the B strain [1] | reactivity as a substrate of the oxidase of the A strain [3]
low | 0.3 | – | OC[C@@H](O)[C@H](O)[C@H](O)[C@H](O)CO [D-talitol] | – | –
– | 1.2 | – | OC[C@@H](O)[C@H](O)[C@@H](O)CO [Xylitol] | – | –
high | 100 | – | OC[C@@H](O)C(O)[C@H](O)CO [D-arabitol] | – | –
– | 0.3 | – | OC[C@H](O)[C@H](O)[C@H](O)[C@@H](O)CO [L-talitol] | – | –
